From US5212176A, “R(+)-terazosin” (Abbott Laboratories, priority 1990, dated 1993)
Where a name gives a salt, the structure may show the parent alone.

What was measured:
[1] = biological target: T1, α1 adrenergic receptors (Rattus norvegicus, UniProt P15823); experiment: α1 adrenergic receptor binding: competition with tritiated prazosin in rat liver membranes; parameters: species or system male Sprague-Dawley rats; conditions: [3H]prazosin 0.2 nM, 22° C., 50 min, mean, read-out: α1 Receptor pKI (converted)
T1 construct: cellular membranes containing α-receptors; from tissue; host or cells: liver membranes of male Sprague-Dawley rats
T1 sequence (P15823 1-515): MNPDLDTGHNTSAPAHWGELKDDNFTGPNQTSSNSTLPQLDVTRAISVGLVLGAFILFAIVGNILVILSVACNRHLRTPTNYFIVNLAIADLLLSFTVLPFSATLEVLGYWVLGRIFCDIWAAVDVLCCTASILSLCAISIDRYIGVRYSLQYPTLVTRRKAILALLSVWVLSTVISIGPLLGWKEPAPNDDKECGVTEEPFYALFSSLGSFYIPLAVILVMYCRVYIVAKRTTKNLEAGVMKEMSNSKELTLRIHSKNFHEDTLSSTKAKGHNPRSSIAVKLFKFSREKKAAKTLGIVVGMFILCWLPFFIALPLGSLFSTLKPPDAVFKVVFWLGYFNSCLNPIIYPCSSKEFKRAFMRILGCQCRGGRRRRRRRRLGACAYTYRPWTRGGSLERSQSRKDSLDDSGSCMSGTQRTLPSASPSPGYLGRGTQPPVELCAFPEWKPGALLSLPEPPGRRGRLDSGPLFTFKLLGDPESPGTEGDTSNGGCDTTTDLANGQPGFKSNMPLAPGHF
Protocol: (§1) The technique is well known and described in the literature. The pKI, or negative logarithm of the binding equilibrium constant, is determined from the experimental data for each receptor and the degree of selectivity of the compound in question for α1 over α2 receptors can be measured by the antilogarithm of the differences between the pKI values for the two receptors.
(§2) α-Adrenergic binding data were obtained for the two enantiomers of terazosin and the racemic compound. Tissue from the liver and cerebral cortex of male Sprague-Dawley rats was homogenized in ice-cold assay buffer (Tris-HCl, 50 mM, pH 7.0 and 22° C.). After centrifugation at 48,000 g for ten minutes the resulting pellets, containing cellular membranes containing α-receptors, were resuspended in 20 volumes of assay buffer and recentrifuged for ten minutes at 48,000 g. Liver membranes were diluted 200-fold and cerebral cortex tissues 50-fold with assay buffer.
(§3) Binding to α1 adrenergic receptors was characterized with liver membranes in competition studies using tritiated prazosin (82 Ci/mmol, DuPont NEN; 0.2 nM) and six concentrations of each test compound at half-log incremental concentrations. Binding to α2 adrenergic receptors was characterized in cerebral cortex tissue using tritiated rauwolscine (82.2 Ci/mMol, DuPont NEN; 0.5 nM) and six concentrations of competing test compound. Equilibrium binding was characterized after a 50 minute incubation period at 22° C.
(§4) where [L] is the concentration of radioligand and KD is the equilibrium dissociation constant of the radioligand for the receptor.

[2] = biological target: α2 adrenergic receptors; experiment: α2 adrenergic receptor binding: competition with tritiated rauwolscine in rat cerebral cortex tissue; parameters: species or system male Sprague-Dawley rats; conditions: [3H]rauwolscine 0.5 nM, 22° C., 50 min, mean
Protocol: as §1, §2, §3, §4

[3] = acute toxicity, intravenous administration in adult male mice; type: in vivo; conditions: mouse, in vivo, adult male mice
Protocol: (§5) The acute toxicities of the two enantiomeric forms of terazosin and the racemic compound were tested in adult male mice by intravenous administration, and the data appear in Table 2.

[4] = tested on: spontaneously hypertensive rat; experiment: antihypertensive effects in the spontaneously hypertensive rat model (blood pressure and heart rate); type: in vivo; conditions: oral, 0.1 to 10.0 mg/kg; 1, 5, 8, and 24 hours
Protocol: The antihypertensive effects of R(+)-, S(-)-, and racemic terazosin were tested in several well-controlled experiments in the spontaneously hypertensive rat model. All three materials were dissolved in vehicle (0.2% methylcellulose) and administered orally at doses ranging from 0.1 to 10.0 mg/kg of body weight. As a control, the vehicle was administered orally. The compounds were administered in a volume of 2.0 ml/kg. All doses of the compound and vehicle were tested simultaneously in groups of eight to sixteen rats, randomly grouped.
The arterial and systolic blood pressure and heart rate were measured thirty minutes prior to and at intervals of 1, 5, 8, and 24 hours following administration of the test compounds. […] While not holding to one theory to the exclusion of others, it is believed that the tachycardia associated with administration of the S(-)-enantiomer is due to the greater affinity of the S(-)-enantiomer for binding at the α2 adrenergic receptor and the lack of tachycardia associated with administration of the R(+)-enantiomer with its low affinity for the α2 receptors.

[5] = tested on: adult male mice; experiment: acute toxicity, intravenous administration in adult male mice; type: in vivo; conditions: mice, R(+) vs S(-)
Protocol: as §5

[6] = biological target: T2, α2 adrenoceptor (Rattus norvegicus, UniProt P22909); experiment: α2-mediated norepinephrine release / clonidine antagonism in the stimulated rat vas deferens model; parameters: species or system male Wistar rats
T2 construct: Vas deferens tissue from male Wistar rats; from tissue; host or cells: isolated vas deferens of male Wistar rats
T2 sequence (P22909 1-465): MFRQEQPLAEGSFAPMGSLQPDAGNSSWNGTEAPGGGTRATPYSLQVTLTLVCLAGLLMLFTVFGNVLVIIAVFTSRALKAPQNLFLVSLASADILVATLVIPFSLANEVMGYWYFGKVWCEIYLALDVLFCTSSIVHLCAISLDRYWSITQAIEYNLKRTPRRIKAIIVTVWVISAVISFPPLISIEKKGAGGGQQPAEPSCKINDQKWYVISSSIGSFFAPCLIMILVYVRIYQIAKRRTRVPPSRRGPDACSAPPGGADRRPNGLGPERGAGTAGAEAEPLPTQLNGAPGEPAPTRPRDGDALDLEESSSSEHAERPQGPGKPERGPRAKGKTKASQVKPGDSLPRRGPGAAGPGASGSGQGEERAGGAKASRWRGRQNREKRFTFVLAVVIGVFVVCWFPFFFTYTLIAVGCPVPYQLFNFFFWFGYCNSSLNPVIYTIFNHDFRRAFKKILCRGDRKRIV
Protocol: The effect upon α2 -stimulated norepinephrine release of R(+)-terazosin and the S(-)-enantiomer and racemic compound were evaluated in the stimulated rat vas deferens model. Vas deferens tissue from male Wistar rats was cleaned of extraneous tissue and mounted between platinum stimulating electrodes and suspended in a tissue bath. The tissues were stimulated transmurally until the preparation stabilized, generally after about 60-80 minutes. After the twitch response became constant, a stimulus was applied at a frequency of 0.1 Hz for the duration of the dose-responsestudy.
Clonidine was used as a control for inhibiting the twitch response, with 10 minute contact times at increasing doses until the stimulated response was attenuated to zero. The stimulus was then reduced to once every five minutes and the tissue washed until the twitch response was restored. After this, the 0.1 Hz signal was again applied and clonidine was administered together with test compound. All responses were calculated as percent reduction in the twitch response.
(The pA2 values is the negative logarithm of the equilibrium dissociation constant for the antagonist-receptor complex, calculated from pharmacological functional data, and is a measure of the affinity of the antagonist at the particular receptor.)

Structure (SMILES)	Ki [1]	α2 Receptor pKI [2]	LD50 [3]	increase in heart rate (tachycardia) [4]	LD50 increase over the corresponding S(-)-enantiomer [5]	pA2 (measurability) ([6]; rat vas deferens)	α2-adrenoreceptor affinity and effect on α2-adrenoreceptor mediated norepinephrine release ([6]; tested up to 3.0 μmolar)	effect on norepinephrine release and contractile (twitch) response ([6]; rat vas deferens, 0.1 Hz stimulation, agonist control)
COc1cc2nc(N3CCN(C(=O)C4CCCO4)CC3)nc(N)c2cc1OC (racemic) [Racemic, 2-[4-[(tetrahydro-2-furanyl)carbonyl]-1-piperazinyl]-6,7-dimethoxy-4-quinazolinamine, reference compound]	0.643 nM	6.569 ± 0.129 - log M	248 mg/kg	tachycardia was consistently observed	–	–	–	–
COc1cc2nc(N3CCN(C(=O)[C@H]4CCCO4)CC3)nc(N)c2cc1OC [R(+), R(+)-2-[4-[(tetrahydro-2-furanyl)carbonyl]-1-piperazinyl]-6,7-dimethoxy-4-quinazolinamine hydrochloride]	0.964 nM	5.938 ± 0.178 - log M	307 mg/kg	consistently did not produce an increase in heart rate (tachycardia)	50%	No pA2 values could be measured	devoid of α2 -adrenoreceptor affinity and thus failed to affect α2 -adrenoreceptor mediated norepinephrine release	–
COc1cc2nc(N3CCN(C(=O)[C@@H]4CCCO4)CC3)nc(N)c2cc1OC [S(-), S(-)-2-[4-[(tetrahydro-2-furanyl)carbonyl]-1-piperazinyl]-6,7-dimethoxy-4-quinazolinamine]	0.643 nM	7.036 ± 0.199 - log M	205 mg/kg	tachycardia was consistently observed	–	–	–	–
Clc1cccc(Cl)c1N=C1NCCN1 [clonidine, reference compound]	–	–	–	–	–	–	–	inhibits norepinephrine release from the adrenergic nerve endings and thus inhibits the contractile response of tissue
